Measurements published in PMC5342071, “A first generation inhibitor of human Greatwall kinase, enabled by structural and functional characterisation of a minimal kinase domain construct” (Oncotarget, 2016).

Experiments:
HeLa cells [1] = assay: Time-lapse video microscopy of HeLa cells; assay type: cell-based, human
Experimental: Figure 5 In cellulo efficacy of GKI-1 in HeLa cells A. HeLa cells were transfected with either non-targeting (siSCR) or GWL targeting siRNAs (siGWL). GWL and loading control protein (Tubulin) were detected by western analysis. B., C. HeLa cells treated with siSCR or siGWL (48-h) were arrested in mitosis using nocodazole and treated with DMSO, 25 μM or 50 μM GKI-1. Immunofluorescent staining of p-ENSA (Red) and GWL (Green) was achieved using anti-phospho(Ser67)-ENSA and anti-MASTL(GWL, RIPLY 74C) antibodies and DAPI was used to stain the nucleus (Blue). (C) Quantitation of the IF p-ENSA and GWL signals was performed using the ScanR High-Content Screening Station. The Circularity and Total DAPI parameters were used to identify mitotic cells. D., E. HeLa cells treated with siSCR or siGWL (48-h) were treated with DMSO, 25 or 50 μM GKI-1. 4-h after treatment, μ-slides were mounted onto an Olympus IX73 microscope, within a temperature-controlled 37°C chamber maintained at 5% CO2, and images were acquired every 5-min for 8.5-h. Time-lapse videos were generated using ImageJ and cellular phenotypes recorded: Mitotic events (D), mitotic arrest (E, F) and failed cytokinesis G. F. Kymographs showing an example of typical phenotypes were generated by capturing images every 5 minutes for 80 minutes. Image sequences were chosen to start just before mitotic entry. (B - G) A total of 3 - 5 biological replicates were completed per condition and the t-test statistical module of Prism 6.0 was used to determine p-values (ns (not statistically significant): P > 0.05; *: P ≤ 0.05; **: P ≤ 0.01; ***: P ≤ 0.001).
HeLa cells were plated on glass coverslips and then transfected with siRNAs using Lipofectamine RNAiMax [ThermoFisher Scientific]. 48 hours after treatment, cells to be used for immunofluorescence were treated with nocodozole and DMSO, or GKI-1. After fixing and staining with antibodies, cells were visualised with a ScanR High Content Screening Station [Olympus Life Science]. Time-lapse videos for treated cells were recorded on an Olympus IX3 microscope fitted with an Ocra-Flash 4.0 CMOS camera [Hamatsu]. […]
Immunofluorescence and Time-lapse video microscopy
2.5 X 105 HeLa cells were plated onto glass coverslips in a 6-well plate, or 4-well µ-slides [Ibidi GmbH] were seeded with 5 X 104 cells and then transfected with Qiagen AllStars negative control or Hs_MASTL_6 siRNAs (14) using Lipofectamine RNAiMax [ThermoFisher Scientific]. Media was exchanged with fresh media the next day. 48 hours after siRNA treatment, only cells to be used for immunofluorescence (IF) were treated with nocodazole (200 ng/mL) and DMSO or GKI-1 at the indicated concentration. For IF, cells were fixed, stained with primary mouse anti-GWL and rabbit anti-p-ENSA antibodies, secondary Alexa Fluor 647-conjugated anti-rabbit and Alexa Fluor 488-conjugated anti-mouse antibodies, DAPI and mounted onto glass microscope slides using Diamond Antifade Mountant [Molecular Probes, ThermoFisher Scientific]. Quantitation of IF images was performed using the ScanR High-Content Screening Station [Olympus Life Science] which acquired 220, 40x images per cover slip. Data were normalised against the AllStars negative control siRNA treated cells and values obtained from three biological replicates were reported as the mean ± 1 S.D. To assist with selecting mitotic cells, ScanR imaging software was utilised to gate for mitotic cells using the circularity factor and total […]
To produce time-lapse videos, after 48 hours and cell treatment with DMSO or compound (cells were treated with GKI-1 for 4-h before image acquisition) cells plated in 4-well µ-slides were imaged every 5 minutes for 8.5 hours on an Olympus IX73 microscope, using a 40 x 0.95NA air objective, and recorded on an Orca-Flash 4.0 CMOS camera [Hamatsu]. The computer program Fiji (http://www.fiji.sc/Fiji) was used to generate videos from […]
image sequence TIF files. […]

HeLa cells [2] = assay: Immunofluorescence of p-ENSA (Ser67) in nocodazole-arrested HeLa cells; assay type: cell-based, human
Description: To more directly address the presence of other off-target effects, and / or any level of compound toxicity, we conducted a more comprehensive phenotypic analysis of GKI-1 and GWL siRNA (siGWL, Figure 5A) treated cells by immunofluorescence (IF) and time-lapse video microscopy. Using an antibody that specifically detects phosphorylation of ENSA-Ser67 (p-ENSA), we established an IF assay in order to measure GWL kinase activity in HeLa cells. We treated the cells with nocodazole in order to arrest cells in mitosis, the cell cycle stage where GWL is maximally active (Figure 5B).
Figure 5 In cellulo efficacy of GKI-1 in HeLa cells A. HeLa cells were transfected with either non-targeting (siSCR) or GWL targeting siRNAs (siGWL). GWL and loading control protein (Tubulin) were detected by western analysis. B., C. HeLa cells treated with siSCR or siGWL (48-h) were arrested in mitosis using nocodazole and treated with DMSO, 25 μM or 50 μM GKI-1. […] (C) Quantitation of the IF p-ENSA and GWL signals was performed using the ScanR High-Content Screening Station. […] Time-lapse videos were generated using ImageJ and cellular phenotypes recorded: Mitotic events (D), mitotic arrest (E, F) and failed cytokinesis G. F. Kymographs showing an example of typical phenotypes were generated by capturing images every 5 minutes for 80 minutes. […]
HeLa cells were plated on glass coverslips and then transfected with siRNAs using Lipofectamine RNAiMax [ThermoFisher Scientific]. […] Time-lapse videos for treated cells were recorded on an Olympus IX3 microscope fitted with an Ocra-Flash 4.0 CMOS camera [Hamatsu]. […]
hGWLFL, 100 µl of lysate was diluted 5-fold with IP buffer and combined with 3 µl anti-Flag M2 magnetic Dynabeads [Sigma-Aldrich] overnight at 4 °C. […] The reaction was stopped by adding SDS loading buffer and analysed by western blot: p-ENSA and GWL levels were detected using the anti-phospho(Ser67)-ENSA and anti-MASTL(GWL, Prestige) antibodies. Activity was measured as the p-ENSA/GWL ratio and % kinase activity was normalised to the DMSO control. […]

[3] = tested on: 50 different protein kinases; assay: Kinase inhibition profiling against 50 protein kinases (University of Dundee); assay type: biochemical, human; settings: 25 μM
Experimental: In order to gain a greater understanding of potential off-target interactions of GKI-1, we undertook more rigorous kinase inhibition profiling (International Centre for Kinase Profiling, University of Dundee) where GKI-1 was tested against 50 different protein kinases, carefully selected to provide representative sampling across the human kinome.
Figure S9. Kinase phylogeny vs GKI-1 inhibitory activity
Kinome render [Manning et al. (2002)] was used to generate a phylogenetic map with overlapping 25
µM GKI-1 inhibitory activity plotted against 50 kinases, carefully selected to represent the human
kinome. Illustration reproduced courtesy of Cell Signaling Technology, Inc. (www.cellsignal.com)
(1 picture or pasted object on this page, not shown here)

For `Clc1ccc(Nc2cccc(-c3cn[nH]c3)c2)cc1` [GKI-1, N-(4-chlorophenyl)-3-(1H-pyrazol-4-yl)aniline], the mitotic events (HeLa cells [1]; 50 μM) was “effect comparable to siGWL treatment”, the “time remaining in prometaphase/metaphase” value (HeLa cells [1]; 50 μM) was “two to six” and the mitotic events (HeLa cells [1]; 25 and 50 μM, vs scrambled control siRNA) was “general decrease in mitotic events”. The failure in cytokinesis (HeLa cells [1]; GKI-1 treated cells compared with GWL depletion) was “only rarely observed”, the “sensitivity of treated cells to fluorescent light” value (HeLa cells [1]; blue to green spectrum, live cell imaging) was “highly sensitive” and the mitotic progression (HeLa cells [1]; relative to SCR-treated cells) was “significant delay in mitotic progression”. The “reduction in p-ENSA levels compared to control” value (HeLa cells [2]; 25 μM, nocodazole-arrested HeLa cells) was 2 fold, the p-ENSA signal (HeLa cells [2]; 50 μM, nocodazole-arrested HeLa cells) was “levels comparable to siGWL treated cells” and the “levels of p-ENSA by immunofluorescence” value (HeLa cells [2]; co-incubation with nocodazole, 25 and 50 μM) was “dose-dependent decrease”. For the same molecule, the “off-target interactions in kinase panel” value [3] was “several off-target interactions”.
